Marks after values point to notes of the source that are not given here.
How the values were obtained:
[1] = test system: Arabidopsis (ecotype Col-0); test: Drenching application, morphological and yield traits of Arabidopsis in soil; type: in vivo
Description: To test the effect on wild-type plants Arabidopsis (ecotype Col-0) was grown in soil in controlled conditions in a growth chambre (16 hours light/8 hours dark; light intensity 120 […]; 22° C.; 60% humidity). In the stage of app. the middle of the principal growth stage 1 and the beginning of principal growth stage 5 (according to Arabidopsis growth stages described by Boyes et al., 2001) 1-10 mL of the compound 12 was applied regulary every third day in 0.1 and 1 μM concentration in different application rates (experiment 1-1 mL of 1 μM compound 12 water solution 12-times; experiment 2-10 mL of 0.1 and 1 μM compound 12 water solution 1-, 3- and 5-times) by drenching to each plant pot. DMSO (0.01%) was used as a solvent control. The plants were grown till the end of the generative stage and then morphological parametres (primary inflorescence stem length, number of auxiliary branches, number of lateral branches, fresh shoot biomass, number of flowers, number of siliques) and the seed yield were recorded.

[2] = Calcein AM viability/cytotoxicity assay, BJ; type: cell-based; settings: human, BJ foreskin fibroblasts, FIG. 11, read-out: IC50, concentration reducing number of viable cells to 50%
Excerpt: Absence of toxic effects against mammalian (especially human) cell lines in a wide concentration range is one of the requirements on compounds intended for use in agriculture and medicine. Because toxic compounds negatively influence metabolic processes in cells, many standard cytotoxicity assays are based on measurement of metabolisation rate of various artificial substrates. Resulting product is then quantified e.g. by means of spectrometry. The assays can be easily modified for use in 96-well plates. For evaluation of cytotoxic effect of compounds of this invention, a microtiter assay based on quantification of metabolisation of Calcein AM was used. The assay is widely used in drug screening programs and in chemosensitivity testing. In live cells, Calcein AM is enzymatically hydrolysed and accumulation of resulting calcein is manifested by green fluorescence. The cytotoxicity of the studied compounds was determined with human fibroblast lines MRC-5 (lung fibroblasts) and BJ (foreskin fibroblasts). […] The fluorescence of the live cells was measured at 485 nm/538 nm (excitation/emission) with a Fluoroskan Ascent microplate reader (Labsystems). […]

COc1cccc(Nc2nc(Cl)nc3c2ncn3C2CCCCO2)c1 (stereo not drawn) [compound 12, 2-chloro-6-(3-methoxyanilino)-9-(tetrahydropyran-2-yl)purine]
No. of auxiliary branches ([1]; 0.1 μM, application rate 1x): 4.06 ± 1.3
No. of auxiliary branches (% of control) ([1]; 0.1 μM, application rate 1x): (113%)
No. of flowers ([1]; 0.1 μM, application rate 1x): 116.12 ± 70
No. of flowers (% of control) ([1]; 0.1 μM, application rate 1x): (153%)*
No. of lateral branches ([1]; 0.1 μM, application rate 1x): 8.59 ± 3.1
No. of lateral branches (% of control) ([1]; 0.1 μM, application rate 1x): (182%)***
No. of siliques ([1]; 0.1 μM, application rate 1x): 133.94 ± 47
No. of siliques (% of control) ([1]; 0.1 μM, application rate 1x): (100%)
fresh shoot biomass ([1]; 0.1 μM, application rate 1x): 1.18 ± 0.4 g
fresh shoot biomass (% of control) ([1]; 0.1 μM, application rate 1x): (108%)
primary inflorescence stem length ([1]; 0.1 μM, application rate 1x): 32.78 ± 5.5 cm
primary inflorescence stem length (% of control) ([1]; 0.1 μM, application rate 1x): (98%)
seed yield per plant ([1]; 0.1 μM, application rate 1x): 0.30 ± 0.1 g
seed yield per plant (% of control) ([1]; 0.1 μM, application rate 1x): (102%)
No. of auxiliary branches ([1]; 0.1 μM, application rate 3x): 3.82 ± 0.6
No. of auxiliary branches (% of control) ([1]; 0.1 μM, application rate 3x): (106%)
No. of flowers ([1]; 0.1 μM, application rate 3x): 91.23 ± 50.1
No. of flowers (% of control) ([1]; 0.1 μM, application rate 3x): (120%)
No. of lateral branches ([1]; 0.1 μM, application rate 3x): 8.35 ± 3.3
No. of lateral branches (% of control) ([1]; 0.1 μM, application rate 3x): (177%)***
No. of siliques ([1]; 0.1 μM, application rate 3x): 154.29 ± 25.6
No. of siliques (% of control) ([1]; 0.1 μM, application rate 3x): (115%)
fresh shoot biomass ([1]; 0.1 μM, application rate 3x): 1.16 ± 0.2 g
fresh shoot biomass (% of control) ([1]; 0.1 μM, application rate 3x): (106%)
primary inflorescence stem length ([1]; 0.1 μM, application rate 3x): 39.6 ± 3.8 cm
primary inflorescence stem length (% of control) ([1]; 0.1 μM, application rate 3x): (119%)***
seed yield per plant ([1]; 0.1 μM, application rate 3x): 0.31 ± 0.1 g
seed yield per plant (% of control) ([1]; 0.1 μM, application rate 3x): (106%)
No. of auxiliary branches ([1]; 0.1 μM, application rate 5x): 3.94 ± 1.1
No. of auxiliary branches (% of control) ([1]; 0.1 μM, application rate 5x): (109%)
No. of flowers ([1]; 0.1 μM, application rate 5x): 99.59 ± 59.3
No. of flowers (% of control) ([1]; 0.1 μM, application rate 5x): (131%)
No. of lateral branches ([1]; 0.1 μM, application rate 5x): 9.82 ± 4.4
No. of lateral branches (% of control) ([1]; 0.1 μM, application rate 5x): (208%)***
No. of siliques ([1]; 0.1 μM, application rate 5x): 141.24 ± 31.7
No. of siliques (% of control) ([1]; 0.1 μM, application rate 5x): (105%)
fresh shoot biomass ([1]; 0.1 μM, application rate 5x): 1.18 ± 0.3 g
fresh shoot biomass (% of control) ([1]; 0.1 μM, application rate 5x): (108%)
primary inflorescence stem length ([1]; 0.1 μM, application rate 5x): 38.61 ± 5.2 cm
primary inflorescence stem length (% of control) ([1]; 0.1 μM, application rate 5x): (116%)***
seed yield per plant ([1]; 0.1 μM, application rate 5x): 0.35 ± 0.1 g
seed yield per plant (% of control) ([1]; 0.1 μM, application rate 5x): (120%)
No. of auxiliary branches ([1]; 1 μM, application rate 1x): 4.29 ± 1.5
No. of auxiliary branches (% of control) ([1]; 1 μM, application rate 1x): (119%)
No. of flowers ([1]; 1 μM, application rate 1x): 139.65 ± 51.7
No. of flowers (% of control) ([1]; 1 μM, application rate 1x): (184%)***
No. of lateral branches ([1]; 1 μM, application rate 1x): 13.35 ± 4.7
No. of lateral branches (% of control) ([1]; 1 μM, application rate 1x): (283%)***
No. of siliques ([1]; 1 μM, application rate 1x): 134.82 ± 31.1
No. of siliques (% of control) ([1]; 1 μM, application rate 1x): (100%)
fresh shoot biomass ([1]; 1 μM, application rate 1x): 1.17 ± 0.3 g
fresh shoot biomass (% of control) ([1]; 1 μM, application rate 1x): (107%)
primary inflorescence stem length ([1]; 1 μM, application rate 1x): 32.66 ± 3.8 cm
primary inflorescence stem length (% of control) ([1]; 1 μM, application rate 1x): (98%)
seed yield per plant ([1]; 1 μM, application rate 1x): 0.37 ± 0.1 g
seed yield per plant (% of control) ([1]; 1 μM, application rate 1x): (126%)
No. of auxiliary branches ([1]; 1 μM, application rate 3x): 4.29 ± 1.1
No. of auxiliary branches (% of control) ([1]; 1 μM, application rate 3x): (119%)*
No. of flowers ([1]; 1 μM, application rate 3x): 118.53 ± 36.6
No. of flowers (% of control) ([1]; 1 μM, application rate 3x): (156%)***
No. of lateral branches ([1]; 1 μM, application rate 3x): 13.50 ± 3.9
No. of lateral branches (% of control) ([1]; 1 μM, application rate 3x): (286%)***
No. of siliques ([1]; 1 μM, application rate 3x): 155.29 ± 44.1
No. of siliques (% of control) ([1]; 1 μM, application rate 3x): (116%)
fresh shoot biomass ([1]; 1 μM, application rate 3x): 1.23 ± 0.3 g
fresh shoot biomass (% of control) ([1]; 1 μM, application rate 3x): (113%)
primary inflorescence stem length ([1]; 1 μM, application rate 3x): 39.07 ± 3.2 cm
primary inflorescence stem length (% of control) ([1]; 1 μM, application rate 3x): (117%)***
seed yield per plant ([1]; 1 μM, application rate 3x): 0.36 ± 0.1 g
seed yield per plant (% of control) ([1]; 1 μM, application rate 3x): (122%)
No. of auxiliary branches ([1]; 1 μM, application rate 5x): 4.50 ± 1.3
No. of auxiliary branches (% of control) ([1]; 1 μM, application rate 5x): (125%)
No. of flowers ([1]; 1 μM, application rate 5x): 143.56 ± 66.3
No. of flowers (% of control) ([1]; 1 μM, application rate 5x): (189%)***
No. of lateral branches ([1]; 1 μM, application rate 5x): 16.44 ± 6.1
No. of lateral branches (% of control) ([1]; 1 μM, application rate 5x): (349%)***
No. of siliques ([1]; 1 μM, application rate 5x): 220.00 ± 37.4
No. of siliques (% of control) ([1]; 1 μM, application rate 5x): (164%)***
fresh shoot biomass ([1]; 1 μM, application rate 5x): 1.81 ± 0.3 g
fresh shoot biomass (% of control) ([1]; 1 μM, application rate 5x): (166%)***
primary inflorescence stem length ([1]; 1 μM, application rate 5x): 44.66 ± 5.9 cm
primary inflorescence stem length (% of control) ([1]; 1 μM, application rate 5x): (134%)***
seed yield per plant ([1]; 1 μM, application rate 5x): 0.33 ± 0.1 g
seed yield per plant (% of control) ([1]; 1 μM, application rate 5x): (111%)
overall shoot biomass ([1]; experiment 1: 1 mL of 1 μM, 12-times, drenching, FIG. 8): stimulation of the overall shoot biomass
increase of fresh shoot biomass compared to control ([1]; experiment 2, higher doses): 6-22%
increase of number of auxiliary branches compared to control ([1]; experiment 2, higher doses): 6-25%
increase of number of flowers compared to control ([1]; experiment 2, higher doses): 20-89%
increase of number of lateral branches compared to control ([1]; experiment 2, higher doses): 77-249%
increase of number of siliques compared to control ([1]; experiment 2, higher doses): 5-66%
increase of primary inflorescence stem length compared to control ([1]; experiment 2, higher doses): 16-34%
increase of seed yield compared to control ([1]; experiment 2, higher doses): 6-26%
IC50 at 72 h [2]: > 100 µM

Reference: patent US10662194B2, “Substituted 6-anilino-9-heterocyclylpurine derivatives for inhibition of plant stress” (UNIVERZITA PALACKEHO V OLOMOUCI, priority 2014, dated 2020)
